Patent publication US20060222707A1 (priority 2005, published 2006)

Test: Small volume in vitro release test in 50 ml 0.1N HCl
Type: physicochemical
Conditions: 37° C., 150 rpm
Procedure: The formulations were tested for their small volume in vitro release characteristics in 50 ml 0.1N HCl at 37° C. and 150 rpm using the following procedure: III. Instrumentation (or Equivalent) a. Automated Dissolution System comprising: Hanson SR8 Plus Test Station Hanson Auto Plus Maximiser System Controller Hanson Auto Plus MultiFill Fraction Collector b. HPLC System comprising: pump—Merck Hitachi L-7100 autoinjector—Merck Hitachi L-7200 column oven—Merck Hitachi L-7300 detector—Merck Hitachi L-7400 interface and integration software—Merck Hitachi D-7000
0.1N HCl Preparation Dilute 8.5 ml HCl 37% to 1 liter with purified water. Procedure Place one weighed capsule in each vessel containing 0.1N HCl and immediately operate the apparatus for 30 min. Unless otherwise specified, 3 ml samples are withdrawn from each vessel and immediately filtered through PTFE membranes at 15 and 30 min.
The small volume was chosen as a model of the conditions in a fasted stomach.

- dissolution under small volume conditions (in words): no dissolution at all
Structure (SMILES): CC(C)OC(=O)C(C)(C)Oc1ccc(C(=O)c2ccc(Cl)cc2)cc1 [Micronized Fenofibrate]
